From ChEMBL document CHEMBL1201862, “PubChem BioAssay data set” (2004)
The source made the active and inactive calls.

Assays:
[1] = biological target: T1, Endoribonuclease toxin MazF (Escherichia coli K-12, UniProt P0AE70); assay: MazF toxin RNase activators, dose response, biochemical, fluorescence, single-stranded RNA substrate, uHTS hits (AID 588481); format: functional
T1 sequence (P0AE70 whole entry): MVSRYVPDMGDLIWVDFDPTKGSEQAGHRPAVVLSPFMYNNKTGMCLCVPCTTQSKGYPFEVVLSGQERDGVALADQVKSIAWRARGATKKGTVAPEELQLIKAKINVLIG

[2] = biological target: T1, Endoribonuclease toxin MazF; assay: fluorescent RNA oligo signal without MazF, dose response, counter-screen for MazEF activator project, biochemical, fluorescence, single-stranded RNase substrate (AID 588502); format: functional
[3] = biological target: T2, Carboxy-terminal domain RNA polymerase II polypeptide A small phosphatase 1 (Homo sapiens, UniProt Q9GZU7); assay: inhibitors of CTDSP1, concentration-response testing, biochemical assay, absorbance-based, actives from ultra-high-throughput screening (AID 540297); format: functional
T2 sequence (Q9GZU7 whole entry): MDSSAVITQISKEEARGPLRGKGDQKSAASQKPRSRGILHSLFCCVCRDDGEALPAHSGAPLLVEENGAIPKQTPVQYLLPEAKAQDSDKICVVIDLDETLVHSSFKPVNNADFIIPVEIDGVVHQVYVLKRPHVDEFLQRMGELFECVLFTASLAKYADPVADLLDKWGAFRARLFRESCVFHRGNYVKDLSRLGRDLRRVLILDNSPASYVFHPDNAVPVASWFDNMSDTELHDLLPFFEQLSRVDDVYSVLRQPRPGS

[4] = biological target: T3, Small ubiquitin-related modifier 1 (Homo sapiens, UniProt P63165); assay: inhibitors of SUMO1 peptide binding, dose response, biochemical, fluorescence polarization, uHTS hits (AID 624382); format: functional; conditions: read-out: IC50_Mean
T3 sequence (P63165 whole entry): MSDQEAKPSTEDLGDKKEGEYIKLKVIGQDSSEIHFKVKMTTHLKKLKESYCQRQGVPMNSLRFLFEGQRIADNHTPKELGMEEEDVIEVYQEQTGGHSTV

[5] = biological target: T3, Small ubiquitin-related modifier 1; assay: inhibitors of SUMO1 partner interactions, dose response, biochemical, FRET (AID 624383); format: functional; conditions: read-out: IC50_Mean
[6] = biological target: Nuclear receptor subfamily 5 group A member 2 (Homo sapiens, UniProt O00482); format: functional, cell-based;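 also: HEK293T cells transfected with LRH-1 and a StAR promoter luciferase reporter; potency for inhibitors that lower LRH-1 driven reporter light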
Chain of Nuclear receptor subfamily 5 group A member 2 (O00482 whole entry): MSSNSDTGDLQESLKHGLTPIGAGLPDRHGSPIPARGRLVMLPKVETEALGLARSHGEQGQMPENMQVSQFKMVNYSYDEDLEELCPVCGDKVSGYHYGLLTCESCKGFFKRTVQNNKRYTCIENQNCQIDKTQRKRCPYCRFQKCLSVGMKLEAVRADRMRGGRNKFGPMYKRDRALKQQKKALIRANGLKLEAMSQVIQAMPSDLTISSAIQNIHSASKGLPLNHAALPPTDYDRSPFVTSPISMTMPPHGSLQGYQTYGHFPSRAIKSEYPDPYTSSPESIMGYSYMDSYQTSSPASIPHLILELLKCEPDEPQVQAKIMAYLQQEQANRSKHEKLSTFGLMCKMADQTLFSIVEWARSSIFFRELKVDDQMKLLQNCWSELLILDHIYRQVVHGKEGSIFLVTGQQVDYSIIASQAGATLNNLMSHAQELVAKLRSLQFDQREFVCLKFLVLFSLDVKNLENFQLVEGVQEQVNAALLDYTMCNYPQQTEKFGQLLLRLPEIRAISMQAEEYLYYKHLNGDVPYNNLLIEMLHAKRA

Steroidogenic factor 1 = Steroidogenic factor 1 (Homo sapiens, UniProt Q13285); assay: Counterscreen for inverse agonists of the liver receptor homolog-1 (LRH-1; NR5A2): Luminescence-based cell-based high throughput dose response assay to identify inverse agonists of the Steroidogenic Factor 1 Nuclear Receptor (SF1; NR5A1).; format: functional
Chain of Steroidogenic factor 1 (Q13285 whole entry): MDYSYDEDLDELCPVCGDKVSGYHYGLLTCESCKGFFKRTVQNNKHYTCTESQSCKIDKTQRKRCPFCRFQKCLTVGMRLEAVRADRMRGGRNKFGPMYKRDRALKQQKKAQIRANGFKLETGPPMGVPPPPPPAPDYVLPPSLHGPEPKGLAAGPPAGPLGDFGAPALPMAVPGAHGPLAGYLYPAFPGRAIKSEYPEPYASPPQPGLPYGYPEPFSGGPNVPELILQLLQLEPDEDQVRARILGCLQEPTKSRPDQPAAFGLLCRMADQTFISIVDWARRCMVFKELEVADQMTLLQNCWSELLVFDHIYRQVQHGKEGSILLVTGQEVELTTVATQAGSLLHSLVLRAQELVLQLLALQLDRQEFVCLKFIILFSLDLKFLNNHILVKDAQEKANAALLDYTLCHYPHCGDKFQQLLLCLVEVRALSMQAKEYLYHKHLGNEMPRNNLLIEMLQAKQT

[7] = StAR promoter reporter inhibition counter-screen, dose response, counter-screen for LRH-1 inverse agonist project, cell-based, luminescence, luciferase reporter (AID 651969); format: functional
[8] = Counterscreen for inhibitors of Trypanosoma brucei methionyl tRNA synthetase (MetRS): Luminescence-based cell-based high throughput dose response assay to identify compounds that are cytotoxic to Jurkat human T lymphocyte cells.; format: functional
Caspase-3 = biological target: T4, Caspase-3 (Homo sapiens, UniProt P42574); format: functional;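 also: Dose-response selectivity test against caspase-3 for candidate inhibitors of sentrin-specific proteases (SENPs)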
T4 sequence (P42574 whole entry): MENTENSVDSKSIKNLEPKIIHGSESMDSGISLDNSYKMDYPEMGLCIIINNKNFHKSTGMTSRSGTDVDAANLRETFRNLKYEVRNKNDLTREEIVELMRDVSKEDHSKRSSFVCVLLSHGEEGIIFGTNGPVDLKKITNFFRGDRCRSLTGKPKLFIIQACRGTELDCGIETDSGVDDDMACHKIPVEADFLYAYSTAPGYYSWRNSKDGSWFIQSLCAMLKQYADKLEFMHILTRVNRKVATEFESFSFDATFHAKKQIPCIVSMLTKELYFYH

[9] = biological target: T5, Sentrin-specific protease 7 (Homo sapiens, UniProt Q9BQF6); format: functional;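 also: Luminescence-based dose-response confirmation of ultra-high-throughput screening hits, measuring inhibition of SENP7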
T5 sequence (Q9BQF6 whole entry): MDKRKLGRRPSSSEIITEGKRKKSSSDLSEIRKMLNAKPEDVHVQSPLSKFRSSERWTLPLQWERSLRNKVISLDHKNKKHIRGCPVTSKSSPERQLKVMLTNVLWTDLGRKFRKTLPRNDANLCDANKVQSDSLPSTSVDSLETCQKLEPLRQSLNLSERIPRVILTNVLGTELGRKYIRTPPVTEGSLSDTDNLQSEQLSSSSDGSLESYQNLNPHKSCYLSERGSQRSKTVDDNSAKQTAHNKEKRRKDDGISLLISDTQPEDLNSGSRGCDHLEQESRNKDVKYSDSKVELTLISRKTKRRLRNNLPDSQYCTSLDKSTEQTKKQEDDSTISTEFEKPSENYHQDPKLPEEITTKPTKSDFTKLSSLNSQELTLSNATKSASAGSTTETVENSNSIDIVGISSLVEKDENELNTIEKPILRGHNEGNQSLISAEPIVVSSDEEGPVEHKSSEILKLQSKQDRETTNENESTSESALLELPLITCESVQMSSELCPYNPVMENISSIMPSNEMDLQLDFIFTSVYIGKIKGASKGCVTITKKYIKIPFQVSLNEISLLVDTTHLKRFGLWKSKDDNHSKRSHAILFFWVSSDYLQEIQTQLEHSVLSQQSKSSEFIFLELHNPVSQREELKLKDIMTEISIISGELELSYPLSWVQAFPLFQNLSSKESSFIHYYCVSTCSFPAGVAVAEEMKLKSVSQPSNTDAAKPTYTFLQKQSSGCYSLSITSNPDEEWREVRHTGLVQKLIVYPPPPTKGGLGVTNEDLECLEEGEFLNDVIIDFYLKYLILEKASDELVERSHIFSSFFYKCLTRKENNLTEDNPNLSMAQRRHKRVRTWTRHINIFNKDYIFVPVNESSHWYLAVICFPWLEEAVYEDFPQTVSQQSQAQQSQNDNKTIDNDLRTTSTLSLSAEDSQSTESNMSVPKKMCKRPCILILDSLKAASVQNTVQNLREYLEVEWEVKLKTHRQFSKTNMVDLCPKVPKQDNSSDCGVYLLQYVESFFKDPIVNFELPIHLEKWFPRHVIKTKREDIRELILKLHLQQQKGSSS

[10] = biological target: T6, Sentrin-specific protease 6 (Homo sapiens, UniProt Q9GZR1); format: functional;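 also: Luminescence-based dose-response confirmatory assay of SENP6 inhibition, following up an ultra-high-throughput screen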
T6 sequence (Q9GZR1 whole entry): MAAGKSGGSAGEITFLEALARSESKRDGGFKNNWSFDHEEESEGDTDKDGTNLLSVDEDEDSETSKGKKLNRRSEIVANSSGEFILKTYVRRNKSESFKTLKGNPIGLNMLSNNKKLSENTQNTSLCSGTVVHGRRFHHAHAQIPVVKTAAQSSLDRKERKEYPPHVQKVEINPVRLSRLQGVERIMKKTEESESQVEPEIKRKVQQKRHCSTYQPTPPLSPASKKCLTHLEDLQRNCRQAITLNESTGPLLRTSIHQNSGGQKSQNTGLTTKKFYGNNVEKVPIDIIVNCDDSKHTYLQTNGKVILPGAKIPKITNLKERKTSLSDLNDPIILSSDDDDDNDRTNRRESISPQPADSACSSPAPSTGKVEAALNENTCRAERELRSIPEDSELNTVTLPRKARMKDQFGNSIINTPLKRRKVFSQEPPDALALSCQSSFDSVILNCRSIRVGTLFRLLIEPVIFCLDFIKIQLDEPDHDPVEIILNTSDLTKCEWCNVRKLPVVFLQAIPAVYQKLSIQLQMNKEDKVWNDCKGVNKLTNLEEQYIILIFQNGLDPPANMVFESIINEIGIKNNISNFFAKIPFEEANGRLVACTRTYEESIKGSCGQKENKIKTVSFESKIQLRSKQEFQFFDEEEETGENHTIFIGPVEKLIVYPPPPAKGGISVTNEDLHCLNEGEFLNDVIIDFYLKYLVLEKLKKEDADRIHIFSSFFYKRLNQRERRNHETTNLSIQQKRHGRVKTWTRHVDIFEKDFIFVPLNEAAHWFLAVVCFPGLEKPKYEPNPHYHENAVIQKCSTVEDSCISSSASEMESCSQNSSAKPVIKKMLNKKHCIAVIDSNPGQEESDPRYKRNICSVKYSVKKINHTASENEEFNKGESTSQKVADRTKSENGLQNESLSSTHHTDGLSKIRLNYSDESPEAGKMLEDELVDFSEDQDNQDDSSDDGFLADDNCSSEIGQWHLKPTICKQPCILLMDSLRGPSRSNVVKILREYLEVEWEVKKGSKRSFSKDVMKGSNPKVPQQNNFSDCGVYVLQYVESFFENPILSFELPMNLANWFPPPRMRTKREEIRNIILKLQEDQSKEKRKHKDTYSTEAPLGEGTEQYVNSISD

[11] = biological target: T7, Sentrin-specific protease 8 (Homo sapiens, UniProt Q96LD8); format: functional;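 also: luminescence read-out of SENP8 inhibition, dose-response confirmation following an ultra-high-throughput screen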
T7 sequence (Q96LD8 whole entry): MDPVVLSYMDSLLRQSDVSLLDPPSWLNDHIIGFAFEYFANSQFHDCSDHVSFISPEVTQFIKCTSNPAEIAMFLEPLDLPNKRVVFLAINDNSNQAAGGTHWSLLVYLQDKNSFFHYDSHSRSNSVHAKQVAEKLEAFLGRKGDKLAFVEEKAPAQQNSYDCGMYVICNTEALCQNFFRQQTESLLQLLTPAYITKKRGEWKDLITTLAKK

[12] = biological target: T8, Mitochondrial peptide methionine sulfoxide reductase (Bos taurus, UniProt P54149); assay: Absorbance-based biochemical high throughput dose response assay for activators of Methionine sulfoxide reductase A (MsrA).; format: functional
T8 sequence (P54149 whole entry): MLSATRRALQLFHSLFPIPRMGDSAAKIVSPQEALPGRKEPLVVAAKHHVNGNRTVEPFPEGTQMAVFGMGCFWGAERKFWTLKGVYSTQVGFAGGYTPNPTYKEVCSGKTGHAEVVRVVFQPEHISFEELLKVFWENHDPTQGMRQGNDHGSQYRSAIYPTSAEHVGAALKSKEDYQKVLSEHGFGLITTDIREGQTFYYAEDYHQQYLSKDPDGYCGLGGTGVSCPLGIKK

Caspase-6 = biological target: T9, Caspase-6 (Homo sapiens, UniProt P55212); assay: human caspase-6 inhibitors, dose response, biochemical, VEID-R110 fluorescence, cherry-pick (AID 720632)
T9 sequence (P55212 whole entry): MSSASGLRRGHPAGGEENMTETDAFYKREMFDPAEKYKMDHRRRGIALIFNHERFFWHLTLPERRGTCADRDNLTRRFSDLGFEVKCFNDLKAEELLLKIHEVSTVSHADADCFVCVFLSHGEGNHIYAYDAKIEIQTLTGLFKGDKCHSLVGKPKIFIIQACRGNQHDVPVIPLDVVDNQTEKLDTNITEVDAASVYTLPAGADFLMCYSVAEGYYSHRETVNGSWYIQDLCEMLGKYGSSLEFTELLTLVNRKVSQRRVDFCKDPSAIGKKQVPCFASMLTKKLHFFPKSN

[13] = biological target: T10, Tyrosyl-DNA phosphodiesterase 2 (Homo sapiens, UniProt O95551); assay: human TDP2 enzyme inhibitors, dose response, biochemical, epi absorbance, IC50 (AID 743297)
T10 sequence (O95551 whole entry): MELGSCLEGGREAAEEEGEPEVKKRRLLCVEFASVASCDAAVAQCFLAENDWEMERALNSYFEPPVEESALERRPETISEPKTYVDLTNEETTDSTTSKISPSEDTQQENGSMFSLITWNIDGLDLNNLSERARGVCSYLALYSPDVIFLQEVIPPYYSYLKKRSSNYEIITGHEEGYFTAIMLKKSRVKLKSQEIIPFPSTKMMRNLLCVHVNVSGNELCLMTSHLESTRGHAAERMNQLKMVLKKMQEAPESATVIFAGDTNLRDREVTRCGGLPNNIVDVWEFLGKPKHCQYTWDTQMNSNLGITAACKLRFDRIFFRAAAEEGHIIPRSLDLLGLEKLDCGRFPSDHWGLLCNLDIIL

BJ [14] = assay: cytotoxicity toward BJ-TERT fibroblasts, dose response, cell-based, RAS-independent, luminescence (AID 1933); format: functional; conditions: Homo sapiens
BJ [15] = assay: cells; format: functional, cell-based; conditions: Homo sapiens
BJ [16] = assay: cytotoxicity toward BJ-TERT-LT-ST fibroblasts, dose response, cell-based, RAS-independent, luminescence (AID 1935); format: functional; conditions: Homo sapiens;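 also: BJ fibroblasts immortalized with TERT plus LT and ST oncogenes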
[17] = cytotoxicity toward DRD oncogenic fibroblasts, dose response, cell-based, non-viral oncogenic, luminescence (AID 1934); format: functional; conditions: Homo sapiens
[18] = Luminescence Cell-Based Dose Retest to Confirm Inhibitors of Cancer Stem Cells. [Related pubchem assays (depositor defined):AID2717, AID2721]; format: functional; conditions: Homo sapiens
[19] = cytotoxicity in HMLE control line with eGFP shRNA, dose response, counter-screen for HMLE_sh_ECad selective toxicity project, cell-based, HMLE_sh_eGFP, luminescence (AID 463074); format: functional, Homo sapiens;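 also: HMLE human mammary epithelial cells expressing control shRNA against eGFP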

## O=[N+]([O-])c1ccc2[nH]c(O)c(N=Nc3ccc(F)cc3)c2c1
[1]
  EC50: > 99 µM (inactive)
[2]
  EC50: 20.3 µM (inactive)

## COc1ccc(Nc2nnc(-c3ccncc3)s2)cc1Cl
[3]
  IC50: 4.85 µM (active)
[4]
  IC50: > 66.6 µM (inactive)
[5]
  IC50: 6.3 µM (active)

## COCC(=O)NC1CCN(CC(=O)Nc2ccc(OC)cc2[N+](=O)[O-])CC1
[6]
  IC50: 3.9 µM (active)
Steroidogenic factor 1
  IC50: 1.37 µM (active)
[7]
  IC50: 35.9 µM (inactive)

## COc1ccc(S(=O)(=O)Nc2ccc3c(c2)n(C)c(=O)n3C)cc1F
[6]
  IC50: 8.04 µM (active)
Steroidogenic factor 1
  IC50: 9.64 µM (active)
[7]
  IC50: 34.5 µM (inactive)

## O=C(CSc1nc2ccc[nH]c-2n1)Nc1ccc2c(c1)OCO2
[8]
  IC50: 83.3 µM (inactive)

## CC1CCCC(NC(=O)COC(=O)c2ccc([N+](=O)[O-])s2)C1C (stereo not given)
Caspase-3
  IC50: 13.7 µM (active)
[9]
  IC50: 8.12 µM (active)
[10]
  IC50: 6.5 µM (active)
[11]
  IC50: 5.63 µM (active)
[12]
  EC50: 22.9 µM (inactive)
Caspase-6
  AC50: 8.44 µM (active)
[13]
  IC50: 85.5 µM (inactive)

## Cc1cccc(NC(=S)N/N=C/c2cccc(O)c2)c1C
BJ [14]
  EC50: 11.3 µM (active)
BJ [15]
  EC50: 26 µM (inconclusive)
BJ [16]
  EC50: 2.91 µM (active)
[17]
  EC50: 2.75 µM (active)
[18]
  AC50: 1.15 µM (active)
[19]
  AC50: 33.7 µM (active)
